Broadly, the IC50 is the point on the concentration scale where inhibition reaches its midpoint. A low value points to greater potency.

Test [1] concerns constitutive active Wnt pathway (HCT116 TOPFlash). As to the kind of experiment: Cellular reporter assay, HCT116 Super TopFlash (constitutive active Wnt pathway). In kind it is cell-based. The settings on record: Homo sapiens, HCT-116; HCT116 stably transfected with Super TopFlash vector; 36 hours incubation; luciferase expression. The procedure: In order to discover and characterize small molecules which inhibit the constitutive active colorectal cancer cell (CRC) Wnt pathway, a cellular reporter assay was employed. The corresponding assay cell was generated by transfection of the colorectal cancer cell line HCT116 (ATCC, #CCL-247) with the Super TopFlash vector (Morin, Science 275, 1997, 1787-1790; Molenaar et al., Cell 86 (3), 1996, 391-399). The HCT116 cell line is cultivated at 37° C. and 5% CO2 in DMEM/F-12 (Life Technologies, #11320-074), supplemented with 2 mM glutamine, 20 mM HEPES, 1.4 mM pyruvate, 0.15% Na-bicarbonate and 10% foetal bovine serum (GIBCO, #10270), this cancer cell line is pathophysiological relevant since it carries a deletion of position S45 in the β-catenin gene, leading to constitutive active Wnt signaling. Stable transfectants were generated by cotransfection with pcDNA3 and selection of stable transfected cells with 1 mg/ml G418.
(§1) In a parallel approach, HCT116 cells were cotransfected with the FOP control vector and pcDNA3. The FOP vector is identical to the TOP construct, but it contains instead of functional TCF elements a randomized, non-functional sequence. For this transfection a stable transfected cell line was generated as well.
(§2) In preparation of the assay, the two cell lines were plated 24 hours before at 10000 cells per well of a 384 micro titre plate (MTP) in 30 μL growth medium. Selective inhibitory activity for small molecules on the mutated Wnt pathway was determined after parallel incubation of both (TOP and FOP) HCT116 reporter cell lines with a compound dilution series from 50 μM to 15 nM in steps of 3.16-fold dilutions in CAFTY buffer (130 mM NaCl, 5 mM KCl, 20 mM HEPES, 1 mM MgCl2, 5 mM NaHCO3, pH 7.4) containing 2 mM Ca^2+ and 0.01% BSA. The compounds were thereby serially prediluted in 100% DMSO and thereafter in addition 50 fold into the CAFTY compound dilution buffer (described above). From this dilution 10 μL were added to the cells in 30 μL growth medium and incubated for 36 hours at 37° C. and 5% CO2. Thereafter luciferase assay buffer (1:1 mixture of luciferase substrate buffer (20 mM Tricine, 2.67 mM MgSO4, 0.1 mM EDTA, 4 mM DTT, 270 μM Coenzyme A, 470 μM Luciferin, 530 μM ATP, ph adjusted to pH 7.8 with a sufficient volume of 5M NaOH) and Triton buffer (30 mL Triton X-100, 115 mL glycerol, 308 mg Dithiothreitol, 4.45 g Na2HPO4.2H2O, 3.03 g TRIS HCl, ad 1 l H20, pH 7.8) was added as equal volume to the compound solution on the cells to determine luciferase expression as a measure of Wnt signaling activity in a luminometer.
On the technique in general: A reporter such as luciferase makes a cellular process visible.

Test [2] has as its system HCT116 FOPFlash (FOP control vector, non-functional TCF elements). Nature of the test: Cellular control reporter assay, HCT116 FOP control vector. In kind it is cell-based. The conditions noted are these: Homo sapiens, HCT-116; HCT116 stably transfected with FOP control vector; 36 hours incubation; luciferase expression; dilution series from 50 μM. Here is the method: as §1, §2

For `CN1CCN(CC(=O)Nc2cc(C(=O)Nc3cnc(-c4ccccc4)cn3)ccc2OC2CC2)CC1` [Example 21, 4-(cyclopropyloxy)-3-{[(4-methylpiperazin-1-yl)acetyl]amino}-N-(5-phenylpyrazin-2-yl)benzamide], the half-inhibitory concentration (IC50) was 0.0168 µM in test [1] and 11 µM in test [2].
In the same order, the values of `CN1CCN(CC(=O)Nc2cc(C(=O)Nc3cnc(-c4cccnc4)cn3)ccc2OC(F)(F)F)CC1` [Example 22, 3-{[(4-methylpiperazin-1-yl)acetyl]amino}-N-[5-(pyridin-3-yl)pyrazin-2-yl]-4-(trifluoromethoxy)benzamide] are 0.017 µM and 38 µM.
Consider `O=C(CN1CCOCC1)Nc1cc(C(=O)Nc2cnc(-c3cccnc3)cn2)ccc1OC(F)(F)F` [Example 23, 3-[(morpholin-4-ylacetyl)amino]-N-[5-(pyridin-3-yl)pyrazin-2-yl]-4-(trifluoromethoxy)benzamide], for which the half-inhibitory concentration (IC50) in test [1] was 0.0297 µM; in test [2], 46 µM.
In the same order, the values of `O=C(CN1CCOCC1)Nc1cc(C(=O)Nc2cnc(-c3ccccc3F)cn2)ccc1OC(F)(F)F` [Example 25, N-[5-(2-fluorophenyl)pyrazin-2-yl]-3-[(morpholin-4-ylacetyl)amino]-4-(trifluoromethoxy)benzamide] are 4.62 µM and 23.1 µM.
As to `O=C(CN1CCOCC1)Nc1cc(C(=O)Nc2cnc(-c3cncnc3)cn2)ccc1OC(F)(F)F` [Example 26, 3-[(morpholin-4-ylacetyl)amino]-N-[5-(pyrimidin-5-yl)pyrazin-2-yl]-4-(trifluoromethoxy)benzamide], the results for the half-inhibitory concentration (IC50) in test [1] and in test [2] were 0.058 µM and at least 50 µM, respectively.
Turning to `O=C(CN1CCOCC1)Nc1cc(C(=O)Nc2cnc(-c3cncnc3)cn2)ccc1OC1CC1` [Example 27, 4-(cyclopropyloxy)-3-[(morpholin-4-ylacetyl)amino]-N-[5-(pyrimidin-5-yl)pyrazin-2-yl]benzamide], the results for the half-maximal inhibitory concentration (IC50) in test [1] and in test [2] were 16.7 µM and at least 50 µM, respectively.
For `CN1CCN(CC(=O)Nc2cc(C(=O)Nc3cnc(-c4ccncc4)cn3)ccc2OC(F)(F)F)CC1` [Example 28, 3-{[(4-methylpiperazin-1-yl)acetyl]amino}-N-[5-(pyridin-4-yl)pyrazin-2-yl]-4-(trifluoromethoxy)benzamide], the values for the IC50 in test [1] and in test [2] were 0.064 µM and at least 50 µM, respectively.
Take `Cc1cccc(F)c1-c1cnc(NC(=O)c2ccc(OC(F)(F)F)c(NC(=O)CN3CCN(C)CC3)c2)cn1` [Example 29, N-[5-(2-fluoro-6-methylphenyl)pyrazin-2-yl]-3-{[(4-methylpiperazin-1-yl)acetyl]amino}-4-(trifluoromethoxy)benzamide]: the IC50 was 16.7 µM in test [1] and at least 50 µM in test [2].
In the same order, the values of `Cc1ccncc1-c1cnc(NC(=O)c2ccc(OC(F)(F)F)c(NC(=O)CN3CCN(C)CC3)c2)cn1` [Example 30, 3-{[(4-methylpiperazin-1-yl)acetyl]amino}-N-[5-(4-methylpyridin-3-yl)pyrazin-2-yl]-4-(trifluoromethoxy)benzamide] are 0.082 µM and at least 50 µM.
Consider `O=C(CN1CCOCC1)Nc1cc(C(=O)Nc2cnc(-c3cc(F)cc(F)c3)cn2)ccc1OC(F)(F)F` [Example 31, N-[5-(3,5-difluorophenyl)pyrazin-2-yl]-3-[(morpholin-4-ylacetyl)amino]-4-(trifluoromethoxy)benzamide], for which the IC50 in test [1] is 0.0885 µM; in test [2], 26.8 µM.
Regarding `Cc1cccc(-c2cnc(NC(=O)c3ccc(OC(F)(F)F)c(NC(=O)CN4CCN(C)CC4)c3)cn2)c1` [Example 32, N-[5-(3-methylphenyl)pyrazin-2-yl]-3-{[(4-methylpiperazin-1-yl)acetyl]amino}-4-(trifluoromethoxy)benzamide], the values for the IC50 in test [1] and in test [2] were 16.7 µM and 40 µM, respectively.
Take `O=C(CN1CCOCC1)Nc1cc(C(=O)Nc2cnc(-c3ccccc3Cl)cn2)ccc1OC(F)(F)F` [Example 33, N-[5-(2-chlorophenyl)pyrazin-2-yl]-3-[(morpholin-4-ylacetyl)amino]-4-(trifluoromethoxy)benzamide]: the IC50 in test [1] came out at 0.115 µM; in test [2], 31.5 µM.

The record behind these values is US20170114070A1, “INHIBITORS OF THE WNT SIGNALLING PATHWAYS” (Bayer Pharma Aktiengesellschaft, priority 2014, published 2017).
